Legend:
corn = assay: Test A pre-/postemergence herbicide test; format: in vivo, Zea mays; conditions: Postemergence
How it was run: (§1)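 Visual 0–100 ratings (100 = complete control) made about 10 days after treatment, greenhouse-held plants compared with untreated controls. Treatments: postemergence sprays on one- to two-leaf plants (2–10 cm tall) and preemergence directed soil sprays after planting in loam–sand, chemicals formulated in non-phytotoxic solvent containing surfactant.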

blackgrass = assay: Test A postemergence herbicide test; format: in vivo, Alopecurus myosuroides
How it was run: (§2)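 Plants at the one- to two-leaf stage, 2–10 cm tall, grown in loam/sand pots, received postemergence sprays of the test chemicals. After about 10 days in the greenhouse, injury was scored visually against untreated controls on a 0–100 scale (0 none, 100 complete control).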

sedge, umbrella = assay: Test B flooded paddy test; format: in vivo, Cyperus difformis; conditions: 500 g ai/ha, Flood; scale of 0 to 100 where 0 is no effect and 100 is complete control
How it was run: (§3)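 Treatment was made at the 2-leaf stage by dosing the standing floodwater, kept 3 cm above soil level for the whole test. Greenhouse exposure lasted 13 to 15 days. Response is a visual percent rating relative to controls, where a dash indicates no test result.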

wheat = assay: Test A pre-/postemergence herbicide test; format: in vivo, Triticum aestivum; conditions: Postemergence; for Plant response rating, Wheat: 125 g ai/ha, 0 to 100 scale, 0 no effect, 100 complete control; for Wheat plant response rating (0 to 100 scale, 0 is no effect, 100 is complete control): 500 g ai/ha
How it was run: as §1

galium = assay: Test A postemergence herbicide test; format: in vivo, Galium aparine; conditions: for Plant response rating, Galium: 125 g ai/ha, 0 to 100 scale, 0 no effect, 100 complete control; for Galium plant response rating (0 to 100 scale, 0 is no effect, 100 is complete control): 500 g ai/ha
How it was run: as §2

ragweed = assay: Test A pre-/postemergence herbicide test; format: in vivo, Ambrosia elatior; conditions: for Plant response rating, Ragweed: 0 to 100 scale
How it was run: as §1

kochia = assay: Test A pre-/postemergence herbicide test; format: in vivo, Kochia scoparia; conditions: for Plant response rating, Kochia: 0 to 100 scale
How it was run: as §1

ducksalad = assay: Test B flooded paddy test; format: in vivo, Heteranthera limosa; conditions: 500 g ai/ha, Flood; scale of 0 to 100 where 0 is no effect and 100 is complete control
How it was run: as §3

rice = assay: Test B flooded paddy test; format: in vivo, Oryza sativa; conditions: 500 g ai/ha, Flood; scale of 0 to 100 where 0 is no effect and 100 is complete control
How it was run: as §3

barnyardgrass [1] = assay: Test A pre-/postemergence herbicide test; format: in vivo, Echinochloa crus-galli
How it was run: as §1

giant foxtail = assay: Test A pre-/postemergence herbicide test; format: in vivo, Setaria faberii; conditions: for Plant response rating, Foxtail, Giant: 0 to 100 scale
How it was run: as §1

ryegrass, Italian = assay: Test A pre-/postemergence herbicide test; format: in vivo, Lolium multiflorum; conditions: for Plant response rating, Ryegrass, Italian: 0 to 100 scale
How it was run: as §1

barnyardgrass [2] = assay: Test B flooded paddy test; format: in vivo, Echinochloa crus-galli; conditions: 500 g ai/ha, Flood; scale of 0 to 100 where 0 is no effect and 100 is complete control
How it was run: as §3

pigweed = assay: Test A pre-/postemergence herbicide test; format: in vivo, Amaranthus retroflexus; conditions: for Plant response rating, Pigweed: 0 to 100 scale
How it was run: as §1

[3] = 125 g ai/ha, 0 to 100 scale, 0 no effect, 100 complete control
[4] = 500 g ai/ha, 0 to 100 scale (0 no effect, 100 complete control)
[5] = 125 g ai/ha, visual rating, 0 no effect, 100 complete control, approximately 10 days, preemergence
[6] = Postemergence, 125 g ai/ha, 0 no effect, 100 complete control
[7] = 125 g ai/ha, visual rating, 0 to 100 scale, 0 no effect, 100 complete control, approximately 10 days, preemergence
[8] = Postemergence, 125 g ai/ha, 0 to 100 scale, 0 no effect, 100 complete control
[9] = Postemergence, 500 g ai/ha, 0 to 100 scale (0 no effect, 100 complete control)
[10] = preemergence, 500 g ai/ha, 0 to 100 scale (0 no effect, 100 complete control)

SMILES	Plant response rating, Corn (corn; [3])	Plant response rating, Corn (corn; [4])	Plant response rating, Blackgrass (blackgrass; [3])	Plant response rating, Blackgrass (blackgrass; [4])	Plant response rating, Sedge, Umbrella (sedge, umbrella)	Plant response rating, Wheat (wheat)	Wheat plant response rating (0 to 100 scale, 0 is no effect, 100 is complete control) (wheat)	Plant response rating, Galium (galium)	Galium plant response rating (0 to 100 scale, 0 is no effect, 100 is complete control) (galium)	Plant response rating, Ragweed (ragweed; [5])	Plant response rating, Ragweed (ragweed; [6])	Ragweed plant response rating (0 to 100 scale, 0 is no effect, 100 is complete control) (ragweed; Postemergence, 500 g ai/ha)	Plant response rating, Ragweed (ragweed; preemergence, 500 g ai/ha)	Plant response rating, Kochia (kochia; [5])	Plant response rating, Kochia (kochia; [6])	Kochia plant response rating (0 to 100 scale, 0 is no effect, 100 is complete control) (kochia; Postemergence, 500 g ai/ha)	Plant response rating, Kochia (kochia; preemergence, 500 g ai/ha)	Plant response rating, Ducksalad (ducksalad)	Plant response rating, Rice (rice)	Plant response rating, Barnyardgrass (barnyardgrass [1]; [7])	other results
O=C1NCC(c2cccc(OC(F)(F)C(F)F)c2)C1C(=O)Nc1ccccc1F (racemic) [Compound 121]	50	70	60	70	0	50	60	60	70	70	0	30	70	60	50	60	70	100	35	80	Plant response rating, Barnyardgrass (barnyardgrass [1]; [8]): 70; Plant response rating, Barnyardgrass (barnyardgrass [1]; [9]): 80; Plant response rating, Barnyardgrass (barnyardgrass [1]; [10]): 90; Plant response rating, Foxtail, Giant (giant foxtail; [5]): 90; Plant response rating, Foxtail, Giant (giant foxtail; [6]): 80; Foxtail, Giant plant response rating (0 to 100 scale, 0 is no effect, 100 is complete control) (giant foxtail; Postemergence, 500 g ai/ha): 90; Plant response rating, Foxtail, Giant (giant foxtail; preemergence, 500 g ai/ha): 90; Plant response rating, Ryegrass, Italian (ryegrass, Italian; [5]): 0; Plant response rating, Ryegrass, Italian (ryegrass, Italian; [6]): 40; Ryegrass, Italian plant response rating (0 to 100 scale, 0 is no effect, 100 is complete control) (ryegrass, Italian; Postemergence, 500 g ai/ha): 50; Plant response rating, Ryegrass, Italian (ryegrass, Italian; preemergence, 500 g ai/ha): 0; Plant response rating, Barnyardgrass (barnyardgrass [2]): 70; Plant response rating, Pigweed (pigweed; [5]): 50; Plant response rating, Pigweed (pigweed; [6]): 0; Pigweed plant response rating (0 to 100 scale, 0 is no effect, 100 is complete control) (pigweed; Postemergence, 500 g ai/ha): 0; Plant response rating, Pigweed (pigweed; preemergence, 500 g ai/ha): 70
O=C1NCC(c2cccc(OC(F)(F)C(F)F)c2)C1C(=O)Nc1ccc(F)cc1F (racemic) [Compound 122]	40	60	50	70	0	50	60	70	80	0	30	70	60	60	70	70	70	100	15	80	Plant response rating, Barnyardgrass (barnyardgrass [1]; [8]): 70; Plant response rating, Barnyardgrass (barnyardgrass [1]; [9]): 80; Plant response rating, Barnyardgrass (barnyardgrass [1]; [10]): 90; Plant response rating, Foxtail, Giant (giant foxtail; [5]): 90; Plant response rating, Foxtail, Giant (giant foxtail; [6]): 80; Foxtail, Giant plant response rating (0 to 100 scale, 0 is no effect, 100 is complete control) (giant foxtail; Postemergence, 500 g ai/ha): 80; Plant response rating, Foxtail, Giant (giant foxtail; preemergence, 500 g ai/ha): 90; Plant response rating, Ryegrass, Italian (ryegrass, Italian; [5]): 0; Plant response rating, Ryegrass, Italian (ryegrass, Italian; [6]): 0; Ryegrass, Italian plant response rating (0 to 100 scale, 0 is no effect, 100 is complete control) (ryegrass, Italian; Postemergence, 500 g ai/ha): 40; Plant response rating, Ryegrass, Italian (ryegrass, Italian; preemergence, 500 g ai/ha): 0; Plant response rating, Barnyardgrass (barnyardgrass [2]): 65; Plant response rating, Pigweed (pigweed; [5]): 50; Plant response rating, Pigweed (pigweed; [6]): 60; Pigweed plant response rating (0 to 100 scale, 0 is no effect, 100 is complete control) (pigweed; Postemergence, 500 g ai/ha): 80; Plant response rating, Pigweed (pigweed; preemergence, 500 g ai/ha): 80

— US10294202B2, “Pyrrolidinones as herbicides” (FMC Corporation, priority 2013, dated 2019)
